In US10799496B2, “Naphthylenyl compounds for long-acting injectable compositions and related methods” (priority 2018, dated 2020):

Tests used:
[1] = Whole blood stability assay; type: in vitro ADME; details: prodrug 50 nM, fresh pooled human whole blood, 37 degrees C.; read-out: t1/2 at 37 degrees C. in human whole blood
Procedure: Naltrexone prodrug stability was assessed using freshly collected whole blood (within 24-hr collection) from pooled human (n=3) donors. The incubation mixtures were prepared by spiking the prodrugs into pre-warmed (37 degrees C.) fresh whole blood to a final concentration of 50 nM. After gentle mixing, aliquots of incubation mixtures were immediately transferred into four different 96-deep well plates. One plate was used for each time point. The plates were incubated at 37 degrees C. at a shaking speed of 100 rpm. At time points 15, 30, 60 and 120 minutes, the reaction was quenched by addition of a mixture of water and acetonitrile containing the internal standard (naltrexone-D3). Time point 0 minutes was prepared separately by spiking the prodrugs into a quenched whole blood to obtain a final concentration of 50 nM. All samples were vortexed at a low speed for 15 min and centrifuged at 3900 rpm for 15 min. Supernatants were transferred into 96-well plates for LC-MS/MS analysis to monitor the depletion of the prodrugs and the formation of naltrexone.
The amount of remaining prodrug and released naltrexone for each sample was quantitated against the calibration curves prepared with the whole blood. The human whole blood was purchased from BioreclamationIVT (Westbury, N.Y., USA). Naltrexone-D3 was purchased from CERILLIANT® (Round Rock, Tex., USA). […] Where multiple runs have been completed, average values are reported.

[2] = Pharmacokinetic evaluation of the release of naltrexone from Compound 2 in rats following a single intramuscular injection; type: in vivo, Sprague-Dawley rats; details: for Compound 2 conc.: rat plasma
Procedure: Five male Sprague-Dawley rats were allowed to acclimate to the test facility for at least 2 days prior to study start. For dose administration of Compound 2, the rats were lightly anesthetized with isofluorane, the hind leg shaved and dosed intramuscularly with the formulation using a 21G needle. […] Serial whole blood samples were collected via sublingual route (˜150 μL) at 1, 8, and 24 hours post dose, and at 2, 4, 7, 10, 14, 17, 21, 24, 28, 35, 42, 49, 56, 63, 71, 78, 85, and 91 days post dose.
Blood samples were placed into K2EDTA blood collection tubes. After collection, blood samples were maintained chilled (on wet ice) and centrifuged (11,500 rpm for 2 minutes at 5 degrees C.) within 30 minutes to obtain plasma. Plasma was transferred into a single vial, 1.5 mL screw cap micro-centrifuge tube with inserts and stored at −80 degrees C. until analysis.
The formulation dosed was a crystalline suspension of Compound 2 (46 milligrams of Compound 2 dosed per animal), wherein the crystalline test article was characterized with a particle size distribution of Dv10=12.9 μm, Dv50=31.5 μm, and Dv90=63.1 μm (as measured via laser diffraction). The formulation was prepared the day before dosing. Details of the formulation dosed are described in Table D below.
Results of the above intramuscular rat study of Compound 2 are shown in Tables E and F. In particular, Table E reports the average blood plasma levels of naltrexone in rat (n=5) over 91 days following intramuscular administration.

## O=C(Cc1ccc2cc(CC(=O)Oc3ccc4c5c3O[C@H]3C(=O)CC[C@@]6(O)[C@@H](C4)N(CC4CC4)CC[C@]536)ccc2c1)Oc1ccc2c3c1O[C@H]1C(=O)CC[C@@]4(O)[C@@H](C2)N(CC2CC2)CC[C@]314 [Compound 2, bis((4R,4aS,7aR,12bS)-3-(cyclopropylmethyl)-4a-hydroxy-7-oxo-2,3,4,4a,5,6,7,7a-octahydro-1H-4,12-methanobenzofuro[3,2-e]isoquinolin-9-yl) 2,2′-(naphthalene-2,6-diyl)diacetate]
[1]
  half-life at 50 nM: 20.9 min
[2]; single i.m. dose of Compound 2, day 0.042 (1 hr), Rat 1
  Compound 2 conc.: 0.223 ng/mL
[2]; single i.m. dose of Compound 2, day 0.042 (1 hr), Rat 2
  Compound 2 conc.: 0.112 ng/mL
[2]; single i.m. dose of Compound 2, day 0.042 (1 hr), Rat 3
  Compound 2 conc.: <0.1 ng/mL
[2]; single i.m. dose of Compound 2, day 0.042 (1 hr), Rat 4
  Compound 2 conc.: 0.131 ng/mL
[2]; single i.m. dose of Compound 2, day 0.042 (1 hr), Rat 5
  Compound 2 conc.: 0.113 ng/mL
[2]; single i.m. dose of Compound 2, day 0.33 (8 hr), Rat 1
  Compound 2 conc.: <0.1 ng/mL
[2]; single i.m. dose of Compound 2, day 0.33 (8 hr), Rat 2
  Compound 2 conc.: <0.1 ng/mL
[2]; single i.m. dose of Compound 2, day 0.33 (8 hr), Rat 3
  Compound 2 conc.: <0.1 ng/mL
[2]; single i.m. dose of Compound 2, day 0.33 (8 hr), Rat 4
  Compound 2 conc.: <0.1 ng/mL
[2]; single i.m. dose of Compound 2, day 0.33 (8 hr), Rat 5
  Compound 2 conc.: <0.1 ng/mL
[2]; single i.m. dose of Compound 2, day 1, Rat 1
  Compound 2 conc.: <0.1 ng/mL
[2]; single i.m. dose of Compound 2, day 1, Rat 2
  Compound 2 conc.: <0.1 ng/mL
[2]; single i.m. dose of Compound 2, day 1, Rat 3
  Compound 2 conc.: <0.1 ng/mL
[2]; single i.m. dose of Compound 2, day 1, Rat 4
  Compound 2 conc.: <0.1 ng/mL
[2]; single i.m. dose of Compound 2, day 1, Rat 5
  Compound 2 conc.: <0.1 ng/mL
[2]; single i.m. dose of Compound 2, day 2, Rat 1
  Compound 2 conc.: <0.1 ng/mL
[2]; single i.m. dose of Compound 2, day 2, Rat 2
  Compound 2 conc.: <0.1 ng/mL
[2]; single i.m. dose of Compound 2, day 2, Rat 3
  Compound 2 conc.: <0.1 ng/mL
[2]; single i.m. dose of Compound 2, day 2, Rat 4
  Compound 2 conc.: <0.1 ng/mL
[2]; single i.m. dose of Compound 2, day 2, Rat 5
  Compound 2 conc.: <0.1 ng/mL
[2]; single i.m. dose of Compound 2, day 7, Rat 1
  Compound 2 conc.: <0.1 ng/mL
[2]; single i.m. dose of Compound 2, day 7, Rat 2
  Compound 2 conc.: <0.1 ng/mL
[2]; single i.m. dose of Compound 2, day 7, Rat 3
  Compound 2 conc.: 0.175 ng/mL
[2]; single i.m. dose of Compound 2, day 7, Rat 4
  Compound 2 conc.: <0.1 ng/mL
[2]; single i.m. dose of Compound 2, day 7, Rat 5
  Compound 2 conc.: <0.1 ng/mL
[2]; single i.m. dose of Compound 2, day 10, Rat 1
  Compound 2 conc.: 0.111 ng/mL
[2]; single i.m. dose of Compound 2, day 10, Rat 2
  Compound 2 conc.: <0.1 ng/mL
[2]; single i.m. dose of Compound 2, day 10, Rat 3
  Compound 2 conc.: 0.104 ng/mL
[2]; single i.m. dose of Compound 2, day 10, Rat 4
  Compound 2 conc.: 0.119 ng/mL
[2]; single i.m. dose of Compound 2, day 10, Rat 5
  Compound 2 conc.: <0.1 ng/mL
[2]; single i.m. dose of Compound 2, day 14, Rat 1
  Compound 2 conc.: 0.119 ng/mL
[2]; single i.m. dose of Compound 2, day 14, Rat 2
  Compound 2 conc.: 0.135 ng/mL
[2]; single i.m. dose of Compound 2, day 14, Rat 3
  Compound 2 conc.: <0.1 ng/mL
[2]; single i.m. dose of Compound 2, day 14, Rat 4
  Compound 2 conc.: 0.144 ng/mL
[2]; single i.m. dose of Compound 2, day 14, Rat 5
  Compound 2 conc.: 0.136 ng/mL
[2]; single i.m. dose of Compound 2, day 17, Rat 1
  Compound 2 conc.: <0.1 ng/mL
[2]; single i.m. dose of Compound 2, day 17, Rat 2
  Compound 2 conc.: <0.1 ng/mL
[2]; single i.m. dose of Compound 2, day 17, Rat 3
  Compound 2 conc.: <0.1 ng/mL
[2]; single i.m. dose of Compound 2, day 17, Rat 4
  Compound 2 conc.: <0.1 ng/mL
[2]; single i.m. dose of Compound 2, day 17, Rat 5
  Compound 2 conc.: <0.1 ng/mL
[2]; single i.m. dose of Compound 2, day 21, Rat 1
  Compound 2 conc.: <0.1 ng/mL
[2]; single i.m. dose of Compound 2, day 21, Rat 2
  Compound 2 conc.: <0.1 ng/mL
[2]; single i.m. dose of Compound 2, day 21, Rat 3
  Compound 2 conc.: <0.1 ng/mL
[2]; single i.m. dose of Compound 2, day 21, Rat 4
  Compound 2 conc.: <0.1 ng/mL
[2]; single i.m. dose of Compound 2, day 21, Rat 5
  Compound 2 conc.: 3.25 ng/mL
[2]; single i.m. dose of Compound 2, day 24, Rat 1
  Compound 2 conc.: 0.198 ng/mL
[2]; single i.m. dose of Compound 2, day 24, Rat 2
  Compound 2 conc.: 0.177 ng/mL
[2]; single i.m. dose of Compound 2, day 24, Rat 3
  Compound 2 conc.: 0.217 ng/mL
[2]; single i.m. dose of Compound 2, day 24, Rat 4
  Compound 2 conc.: 0.170 ng/mL
[2]; single i.m. dose of Compound 2, day 24, Rat 5
  Compound 2 conc.: 0.280 ng/mL
[2]; single i.m. dose of Compound 2, day 28, Rat 1
  Compound 2 conc.: 0.236 ng/mL
[2]; single i.m. dose of Compound 2, day 28, Rat 2
  Compound 2 conc.: 0.193 ng/mL
[2]; single i.m. dose of Compound 2, day 28, Rat 3
  Compound 2 conc.: 0.205 ng/mL
[2]; single i.m. dose of Compound 2, day 28, Rat 4
  Compound 2 conc.: 0.176 ng/mL
[2]; single i.m. dose of Compound 2, day 28, Rat 5
  Compound 2 conc.: 0.111 ng/mL
[2]; single i.m. dose of Compound 2, day 35, Rat 1
  Compound 2 conc.: 0.165 ng/mL
[2]; single i.m. dose of Compound 2, day 35, Rat 2
  Compound 2 conc.: 0.439 ng/mL
[2]; single i.m. dose of Compound 2, day 35, Rat 3
  Compound 2 conc.: 0.350 ng/mL
[2]; single i.m. dose of Compound 2, day 35, Rat 4
  Compound 2 conc.: 0.265 ng/mL
[2]; single i.m. dose of Compound 2, day 35, Rat 5
  Compound 2 conc.: 0.152 ng/mL
[2]; single i.m. dose of Compound 2, day 42, Rat 1
  Compound 2 conc.: 0.155 ng/mL
[2]; single i.m. dose of Compound 2, day 42, Rat 2
  Compound 2 conc.: 0.156 ng/mL
[2]; single i.m. dose of Compound 2, day 42, Rat 3
  Compound 2 conc.: 0.212 ng/mL
[2]; single i.m. dose of Compound 2, day 42, Rat 4
  Compound 2 conc.: 0.199 ng/mL
[2]; single i.m. dose of Compound 2, day 42, Rat 5
  Compound 2 conc.: 0.205 ng/mL
[2]; single i.m. dose of Compound 2, day 49, Rat 1
  Compound 2 conc.: <0.1 ng/mL
[2]; single i.m. dose of Compound 2, day 49, Rat 2
  Compound 2 conc.: <0.1 ng/mL
[2]; single i.m. dose of Compound 2, day 49, Rat 3
  Compound 2 conc.: <0.1 ng/mL
[2]; single i.m. dose of Compound 2, day 49, Rat 4
  Compound 2 conc.: <0.1 ng/mL
[2]; single i.m. dose of Compound 2, day 49, Rat 5
  Compound 2 conc.: <0.1 ng/mL
[2]; single i.m. dose of Compound 2, day 56, Rat 1
  Compound 2 conc.: 0.358 ng/mL
[2]; single i.m. dose of Compound 2, day 56, Rat 2
  Compound 2 conc.: 0.205 ng/mL
[2]; single i.m. dose of Compound 2, day 56, Rat 3
  Compound 2 conc.: 0.105 ng/mL
[2]; single i.m. dose of Compound 2, day 56, Rat 4
  Compound 2 conc.: 0.170 ng/mL
[2]; single i.m. dose of Compound 2, day 56, Rat 5
  Compound 2 conc.: 0.163 ng/mL
[2]; single i.m. dose of Compound 2, day 63, Rat 1
  Compound 2 conc.: <0.1 ng/mL
[2]; single i.m. dose of Compound 2, day 63, Rat 2
  Compound 2 conc.: <0.1 ng/mL
[2]; single i.m. dose of Compound 2, day 63, Rat 3
  Compound 2 conc.: <0.1 ng/mL
[2]; single i.m. dose of Compound 2, day 63, Rat 4
  Compound 2 conc.: 0.142 ng/mL
[2]; single i.m. dose of Compound 2, day 63, Rat 5
  Compound 2 conc.: <0.1 ng/mL
[2]; single i.m. dose of Compound 2, day 71, Rat 1
  Compound 2 conc.: <0.1 ng/mL
[2]; single i.m. dose of Compound 2, day 71, Rat 2
  Compound 2 conc.: <0.1 ng/mL
[2]; single i.m. dose of Compound 2, day 71, Rat 3
  Compound 2 conc.: <0.1 ng/mL
[2]; single i.m. dose of Compound 2, day 71, Rat 4
  Compound 2 conc.: <0.1 ng/mL
[2]; single i.m. dose of Compound 2, day 71, Rat 5
  Compound 2 conc.: <0.1 ng/mL
[2]; single i.m. dose of Compound 2, day 78, Rat 1
  Compound 2 conc.: <0.1 ng/mL
[2]; single i.m. dose of Compound 2, day 78, Rat 2
  Compound 2 conc.: <0.1 ng/mL
[2]; single i.m. dose of Compound 2, day 78, Rat 3
  Compound 2 conc.: <0.1 ng/mL
[2]; single i.m. dose of Compound 2, day 78, Rat 4
  Compound 2 conc.: <0.1 ng/mL
[2]; single i.m. dose of Compound 2, day 78, Rat 5
  Compound 2 conc.: <0.1 ng/mL
[2]; single i.m. dose of Compound 2, day 85, Rat 1
  Compound 2 conc.: <0.1 ng/mL
[2]; single i.m. dose of Compound 2, day 85, Rat 2
  Compound 2 conc.: <0.1 ng/mL
[2]; single i.m. dose of Compound 2, day 85, Rat 3
  Compound 2 conc.: <0.1 ng/mL
[2]; single i.m. dose of Compound 2, day 85, Rat 4
  Compound 2 conc.: <0.1 ng/mL
[2]; single i.m. dose of Compound 2, day 85, Rat 5
  Compound 2 conc.: <0.1 ng/mL
[2]; single i.m. dose of Compound 2, day 91, Rat 1
  Compound 2 conc.: <0.1 ng/mL
[2]; single i.m. dose of Compound 2, day 91, Rat 2
  Compound 2 conc.: <0.1 ng/mL
[2]; single i.m. dose of Compound 2, day 91, Rat 3
  Compound 2 conc.: <0.1 ng/mL
[2]; single i.m. dose of Compound 2, day 91, Rat 4
  Compound 2 conc.: <0.1 ng/mL
[2]; single i.m. dose of Compound 2, day 91, Rat 5
  Compound 2 conc.: <0.1 ng/mL
[2]; rat, single i.m. dose of Compound 2, over 91 days
  plasma concentrations of parent Compound 2 and the resultant intermediate: generally low to not measurable
[2]; rat, single i.m. dose, over 91 days
  conversion of Compound 2 in rats to naltrexone: efficient conversion
